Test results from patent US9029359B2, “Heteroaryl Btk inhibitors” (Biogen Idec MA, Inc., priority 2009, dated 2015).

What follows are compounds tested against T1, BTK (Homo sapiens, UniProt Q06187) (assay: In vitro BTK kinase assay: BTK-POLYGAT-LS ASSAY). Conditions: ATP 10 uM.
T1 construct: purchased Upstate 14-552
Type: biochemical
In short: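 BTK phosphorylation of polyGAT (100 nM final) with ATP at 10 μM final, 10 mM Tris-HCl pH 7.5 kinase buffer, quenched by EDTA after 30 min. Potency given as IC50.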

T1 sequence (Q06187 whole entry): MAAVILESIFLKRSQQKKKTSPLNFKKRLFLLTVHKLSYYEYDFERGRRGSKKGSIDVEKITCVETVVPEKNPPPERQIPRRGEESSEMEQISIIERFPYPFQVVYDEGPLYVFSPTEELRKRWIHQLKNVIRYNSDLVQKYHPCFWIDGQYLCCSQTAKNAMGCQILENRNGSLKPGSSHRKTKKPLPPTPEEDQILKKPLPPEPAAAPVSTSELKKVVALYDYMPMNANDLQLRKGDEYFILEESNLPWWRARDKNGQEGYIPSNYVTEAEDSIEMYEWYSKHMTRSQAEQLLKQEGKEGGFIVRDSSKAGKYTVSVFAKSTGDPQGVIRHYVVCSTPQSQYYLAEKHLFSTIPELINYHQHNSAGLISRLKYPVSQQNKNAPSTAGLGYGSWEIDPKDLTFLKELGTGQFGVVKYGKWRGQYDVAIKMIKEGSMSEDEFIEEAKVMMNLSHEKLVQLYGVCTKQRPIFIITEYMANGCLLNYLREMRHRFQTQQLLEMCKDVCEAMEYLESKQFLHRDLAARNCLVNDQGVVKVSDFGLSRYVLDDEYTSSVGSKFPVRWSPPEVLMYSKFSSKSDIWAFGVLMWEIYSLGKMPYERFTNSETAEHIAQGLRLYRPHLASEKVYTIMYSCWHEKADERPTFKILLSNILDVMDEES

Row | SMILES | IC50
1 | CCC[C@@H](Nc1ccccc1)C(=O)N[C@@H]1CCCN(c2ncnc3[nH]ccc23)C1 [Example 257] | 100 to 999 nM
2 | C[C@H](O)[C@@H](Nc1cc(F)cc(Cl)c1)C(=O)N[C@@H]1CCCN(c2ncnc3[nH]ccc23)C1 [Example 206] | < 100 nM
3 | CCc1cccc(C)c1NCC(=O)N[C@@H]1CCCN(c2ncnc3[nH]ccc23)C1 [Example 403] | 1000 to 10000 nM
4 | O=C(CNc1cccc2c1CNC2=O)NC1CCCN(c2ncnc3[nH]ccc23)C1 (stereo not shown) [Example 54, (N-(1-(7H-pyrrolo[2,3-d]pyrimidin-4-yl)piperidin-3-yl)-2-(1-oxoisoindolin-4-ylamino)acetamide)] | > 10000 nM
5 | CCN(CC)S(=O)(=O)c1ccccc1NCC(=O)N[C@@H]1CCCN(c2ncnc3[nH]ccc23)C1 [Example 208] | < 100 nM
6 | CNC(=O)c1cccc(NCC(=O)NC2CCCN(c3ncnc4[nH]ccc34)C2)c1 (stereo not shown) [Example 339] | > 10000 nM
7 | O=C(CNc1ccccc1S(=O)(=O)N1CCC(C(F)(F)F)CC1)N[C@@H]1CCCN(c2ncnc3[nH]ccc23)C1 [Example 217] | < 100 nM
8 | O=C(N[C@@H]1CCCN(c2ncnc3[nH]ccc23)C1)C1(Nc2ccccc2)CC1 [Example 126, (R)—N-(1-(7H-pyrrolo[2,3-d]pyrimidin-4-yl)piperidin-3-yl)-1-(phenylamino)cyclopropanecarboxamide] | 1000 to 10000 nM
9 | Cc1cc(C)c(NCC(=O)N[C@@H]2CCCN(c3ncnc4[nH]ccc34)C2)c(C)c1 [Example 428] | 1000 to 10000 nM
10 | C[C@@H](Nc1ccccc1)C(=O)N[C@@H]1CCCN(c2ncnc3[nH]ccc23)C1 [Example 100, (R)—N—((R)-1-(7H-pyrrolo[2,3-d]pyrimidin-4-yl)piperidin-3-yl)-2-(phenylamino)propanamide] | 100 to 999 nM
11 | O=C(CNc1cccc(Oc2ccccc2)c1)NC1CCCN(c2ncnc3[nH]ccc23)C1 (stereo not shown) [Example 42, (N-(1-(7H-pyrrolo[2,3-d]pyrimidin-4-yl)piperidin-3-yl)-2-(3-phenoxyphenylamino)acetamide)] | 100 to 999 nM
12 | O=C(N[C@@H]1CCCN(c2ncnc3[nH]ccc23)C1)[C@H](Nc1cc(F)cc(F)c1)C1CC1 [Example 120, (R)—N—((R)-1-(7H-pyrrolo[2,3-d]pyrimidin-4-yl)piperidin-3-yl)-2-cyclopropyl-2-(3,5-difluorophenylamino)acetamide] | < 100 nM
13 | CC(C)(C)[C@@H](Nc1ccccc1)C(=O)N[C@@H]1CCCN(c2ncnc3[nH]ccc23)C1 [Example 108, (R)—N—((R)-1-(7H-pyrrolo[2,3-d]pyrimidin-4-yl)piperidin-3-yl)-3,3-dimethyl-2-(phenylamino)butanamide] | 100 to 999 nM
14 | CC[C@@H](Nc1cc(Cl)cc(Cl)c1)C(=O)N[C@H]1CN(c2ncnc3[nH]ncc23)CC[C@@H]1C [Example 369] | 100 to 999 nM
15 | COc1ccc(C)c(NCC(=O)N[C@@H]2CCCN(c3ncnc4[nH]ccc34)C2)c1 [Example 451] | 1000 to 10000 nM
16 | O=C(CNc1cccc(CN2CCCCC2)c1)NC1CCCN(c2ncnc3[nH]ccc23)C1 (stereo not shown) [Example 346] | > 10000 nM
17 | C[C@@H](O)[C@@H](Nc1cc(F)cc(Cl)c1)C(=O)N[C@@H]1CCCN(c2ncnc3[nH]ccc23)C1 [Example 408] | 1000 to 10000 nM
18 | O=C(CNc1cccc2c1CCCC2)NC1CCCN(c2ncnc3[nH]ccc23)C1 (stereo not shown) [Example 41, (N-(1-(7H-pyrrolo[2,3-d]pyrimidin-4-yl)piperidin-3-yl)-2-(5,6,7,8-tetrahydronaphthalen-1-ylamino)acetamide)] | < 100 nM
19 | C[C@@H](Nc1cc(F)cc(Cl)c1)C(=O)N[C@@H]1CCCN(c2ncnc3[nH]ccc23)C1 [Example 232] | < 100 nM
20 | CCC[C@@H](Nc1cccc(Cl)c1)C(=O)N[C@@H]1CCCN(c2ncnc3[nH]ncc23)C1 [Example 169] | < 100 nM
21 | O=C(CNc1c(F)ccc(F)c1F)N[C@@H]1CCCN(c2ncnc3[nH]ccc23)C1 [Example 411] | 100 to 999 nM
22 | O=C(Cc1ccccc1)NCC(=O)NC1CCCN(c2ncnc3[nH]ccc23)C1 (stereo not shown) [Example 96, (N-(1-(7H-pyrrolo[2,3-d]pyrimidin-4-yl)piperidin-3-yl)-2-(2-phenylacetamido)acetamide)] | 1000 to 10000 nM
23 | O=C(N[C@@H]1CCCN(c2ncnc3[nH]ccc23)C1)C1(Nc2ccccc2)CCCC1 [Example 127, (R)—N-(1-(7H-pyrrolo[2,3-d]pyrimidin-4-yl)piperidin-3-yl)-1-(phenylamino)cyclopentanecarboxamide] | 1000 to 10000 nM
24 | O=C(N[C@@H]1CCCN(c2ncnc3[nH]ccc23)C1)[C@@H](CC1CC1)Nc1cccc(Cl)c1 [Example 391] | 1000 to 10000 nM
25 | CC(C)Oc1ccccc1NCC(=O)N[C@@H]1CCCN(c2ncnc3[nH]ncc23)C1 [Example 367] | 100 to 999 nM
26 | CC1CN(S(=O)(=O)c2ccccc2NCC(=O)N[C@@H]2CCCN(c3ncnc4[nH]ncc34)C2)CC(C)O1 (stereo partly shown) [Example 372] | 100 to 999 nM
27 | Cc1cccc(NCC(=O)NC2CCCN(c3ncnc4[nH]ccc34)C2)c1 (stereo not shown) [Example 31, (N-(1-(7H-pyrrolo[2,3-d]pyrimidin-4-yl)piperidin-3-yl)-2-(m-tolylamino)acetamide)] | 100 to 999 nM
28 | O=C(CNc1ccc(F)cc1)N[C@@H]1CCCN(c2ncnc3[nH]ccc23)C1 [Example 413] | 100 to 999 nM

Row | SMILES | IC50
29 | CC[C@@H](C)[C@@H](Nc1cc(F)cc(Cl)c1)C(=O)N[C@@H]1CCCN(c2ncnc3[nH]ncc23)C1 [Example 180] | < 100 nM
30 | CC1CCCN1S(=O)(=O)c1ccccc1NCC(=O)N[C@@H]1CCCN(c2ncnc3[nH]ncc23)C1 (stereo partly shown) [Example 189] | < 100 nM
31 | Cn1ccc(NCC(=O)NC2CCCN(c3ncnc4[nH]ccc34)C2)n1 (stereo not shown) [Example 80, (N-(1-(7H-pyrrolo[2,3-d]pyrimidin-4-yl)piperidin-3-yl)-2-(1-methyl-1H-pyrazol-3-ylamino)acetamide)] | 1000 to 10000 nM
32 | CN(C1CCCCC1)S(=O)(=O)c1ccccc1NCC(=O)N[C@@H]1CCCN(c2ncnc3[nH]ncc23)C1 [Example 240] | < 100 nM
33 | CCN(CC)S(=O)(=O)c1ccccc1NCC(=O)N[C@@H]1CCCN(c2ncnc3[nH]ncc23)C1 [Example 195] | < 100 nM
34 | O=C(CNc1cccc2c1OC(F)(F)O2)NC1CCCN(c2ncnc3[nH]ccc23)C1 (stereo not shown) [Example 25, (N-(1-(7H-pyrrolo[2,3-d]pyrimidin-4-yl)piperidin-3-yl)-2-(2,2-difluorobenzo[d][1,3]dioxol-4-ylamino)acetamide)] | < 100 nM
35 | O=C(CNc1cccc(-c2cnco2)c1)N[C@@H]1CCCN(c2ncnc3[nH]ccc23)C1 [Example 435] | 1000 to 10000 nM
36 | CNS(=O)(=O)c1ccccc1NCC(=O)N[C@@H]1CCCN(c2ncnc3[nH]ccc23)C1 [Example 457] | 1000 to 10000 nM
37 | C[C@@H](Nc1cccc(Cl)c1)C(=O)N[C@@H]1CCCN(c2ncnc3[nH]ccc23)C1 [Example 238] | < 100 nM
38 | O=C(CNC(=O)c1ccccc1)NC1CCCN(c2ncnc3[nH]ccc23)C1 (stereo not shown) [Example 3, (N-(2-(1-(7H-pyrrolo[2,3-d]pyrimidin-4-yl)piperidin-3-ylamino)-2-oxoethyl)benzamide)] | 100 to 999 nM
39 | COc1ccc(NCC(=O)NC2CCCN(c3ncnc4[nH]ccc34)C2)cc1 (stereo not shown) [Example 348] | > 10000 nM
40 | Cc1c(O)cccc1NCC(=O)N[C@@H]1CCCN(c2ncnc3[nH]ccc23)C1 [Example 398] | 1000 to 10000 nM
41 | O=C(CNc1cccc2ccncc12)NC1CCCN(c2ncnc3[nH]ccc23)C1 (stereo not shown) [Example 329] | > 10000 nM
42 | CCN(C)S(=O)(=O)c1ccccc1NCC(=O)N[C@@H]1CCCN(c2ncnc3[nH]ncc23)C1 [Example 213] | < 100 nM
43 | Cn1ncc2c(NCC(=O)NC3CCCN(c4ncnc5[nH]ccc45)C3)cccc21 (stereo not shown) [Example 78, (N-(1-(7H-pyrrolo[2,3-d]pyrimidin-4-yl)piperidin-3-yl)-2-(1-methyl-1H-indazol-4-ylamino)acetamide)] | 1000 to 10000 nM
44 | O=C(CNc1cccc(N2CCNC2=O)c1)NC1CCCN(c2ncnc3[nH]ccc23)C1 (stereo not shown) [Example 337] | > 10000 nM
45 | CC1CCC(C)N1S(=O)(=O)c1ccccc1NCC(=O)N[C@@H]1CCCN(c2ncnc3[nH]ncc23)C1 (stereo partly shown) [Example 220] | < 100 nM
46 | C[C@H](O)[C@@H](Nc1cc(Cl)cc(Cl)c1)C(=O)N[C@@H]1CCCN(c2ncnc3[nH]ncc23)C1 [Example 165] | < 100 nM
47 | O=C(CNc1ccc(F)cc1F)N[C@@H]1CCCN(c2ncnc3[nH]ccc23)C1 [Example 454] | 1000 to 10000 nM
48 | CC[C@@H](Nc1ccccc1C(C)C)C(=O)N[C@@H]1CCCN(c2ncnc3[nH]ccc23)C1 [Example 249] | 100 to 999 nM
49 | CC(C)C[C@@H](Nc1ccccc1)C(=O)N[C@@H]1CCCN(c2ncnc3[nH]ccc23)C1 [Example 105, (R)—N—((R)-1-(7H-pyrrolo[2,3-d]pyrimidin-4-yl)piperidin-3-yl)-4-methyl-2-(phenylamino)pentanamide] | 1000 to 10000 nM
50 | Cc1ccc(NCC(=O)N[C@@H]2CCCN(c3ncnc4[nH]ccc34)C2)cc1Cl [Example 287] | 100 to 999 nM
51 | O=C(N[C@@H]1CCCN(c2ncnc3[nH]ccc23)C1)[C@@H](Cc1ccccc1)Nc1ccccc1 [Example 104, (R)—N—((R)-1-(7H-pyrrolo[2,3-d]pyrimidin-4-yl)piperidin-3-yl)-3-phenyl-2-(phenylamino)propanamide] | 1000 to 10000 nM
52 | O=C(CNc1cc(F)cc(C(F)(F)F)c1)NC1CCCN(c2ncnc3[nH]ccc23)C1 (stereo not shown) [Example 63, (N-(1-(7H-pyrrolo[2,3-d]pyrimidin-4-yl)piperidin-3-yl)-2-(3-fluoro-5-(trifluoromethyl)phenylamino)acetamide)] | < 100 nM
53 | O=C(NC1CCCN(c2ncnc3[nH]ccc23)C1)[C@@H](CCCO)Nc1ccccc1 (stereo partly shown) [Example 447] | 1000 to 10000 nM
54 | N#Cc1cc(Cl)cc(NCC(=O)N[C@@H]2CCCN(c3ncnc4[nH]ccc34)C2)c1 [Example 297] | 100 to 999 nM
55 | O=C(CNc1ccccc1OC1CCCC1)N[C@@H]1CCCN(c2ncnc3[nH]ccc23)C1 [Example 222] | < 100 nM
